Results published in US4206207A, “Use of 4-carboxy-phthalato(1,2-diaminocyclohexane)-platinum (II) and alkali metal salts thereof with cyclophosphamide in alleviating L1210 murine leukemia” (priority 1978, dated 1980).
Values joined by “and” are separate entries in the source; they are usually repeats but may differ in a detail not shown here. Identical values can stand only once.

Tests used:
[1] = Renal Toxicity Screening Protocol, toxicity compared to NSC-119875; format: in vivo; conditions: for Body Weight Loss score / Clinical Chemistry - Blood Urea Nitrogen score / Clinical Chemistry - Creatinine score / Clinical Chemistry - Serum Glutamic Pyruvic Transaminase score / Hematology - Hematocrit score / Hematology - White Blood Cell score / Histopathology - Gastrointestinal score / Histopathology - Hematopoietic score / Histopathology - Lymphatic score / Histopathology - Renal score: relative to NSC-119875; for TOTAL SCORE: sum of the ten scores
L1210 leukemia [2] = assay: L1210 leukemia in BDF1 mice, ip treatment on Day 1 only; format: in vivo; conditions: for % increase in life span (% ILS): in 1% NaHCO3
Description: The compound in 1% NaHCO3 solution was tested against the L1210 leukemia in BDF1 mice [10^6 cells given to mice on Day 0, treatment (ip) on Day 1 only] in laboratory and the following % increases in life span (%ILS) were noted: […]

L1210 leukemia [3] = assay: L1210 leukemia in mice, treatment delayed until Day 3, singly and in combination; format: in vivo, BDF1 mice; conditions: Day 3 treatment
Description: The compound in 1% NaHCO3 solution was tested against the L1210 leukemia in BDF1 mice [10^6 cells given to mice on Day 0, treatment (ip) on Day 1 only] in laboratory and the following % increases in life span (%ILS) were noted:
When treatment was delayed until Day 3, 5 mg/kg gave 51% ILS, 42% ILS and 39% ILS in three experiments.

Lethality (LD50) in mice = conditions: mouse, in vivo
L1210 leukemia [4] = assay: NCI screen against L1210 leukemia, day 1, 5, 9 schedule; format: in vivo, murine
From the text: The compound was submitted to the Drug Development Branch of the National Cancer Institute and assigned NSC Number 271674. It was screened against the L1210 leukemia on a day 1, 5, 9 schedule and the following results were obtained: […]

L1210 leukemia [5] = assay: Second screener against L1210 leukemia, day 1, 5, 9 schedule; format: in vivo, murine
From the text: The compound was submitted to the Drug Development Branch of the National Cancer Institute and assigned NSC Number 271674. It was screened against the L1210 leukemia on a day 1, 5, 9 schedule and the following results were obtained:

L1210 [6] = assay: In vitro growth inhibition of L1210 cells; format: cell-based, murine
From the text: (§1) The ID50 refers to the concentration of test compound required to
(§2) inhibit the growth of either the L1210 or L1210/DDP (NSC119875) resistant

L1210/DDP = assay: In vitro growth inhibition of L1210/DDP (NSC-119875 resistant) cells; format: cell-based, murine
From the text: as §1, §2

P388 leukemia = assay: In vivo activity against P388 leukemia; conditions: Days 1,5,9,13, NSC-119875 6.7 mg/kg, NSC-271674 20.0 mg/kg
From the text: (§3) Data are expressed as survival in days and as a percentage increase in […]

P388/DDP = assay: In vivo activity against P388/DDP leukemia with acquired resistance to NSC-119875; conditions: Days 1,5,9,13, NSC-119875 6.7 mg/kg, NSC-271674 20.0 mg/kg
From the text: P388/DDP refers to a tumor line with acquired resistance to NSC119875.
as §3

B16 melanoma = assay: Mouse tumor panel: B16 melanoma (ip, survival time); format: in vivo; conditions: D1-9
Description: (§4) NSC-271674 Against a Panel of a Mouse Tumors
(§5) *Survival time (mean or median) assay
(§6) Data are expressed as a percentage of the survival time in days or the
(§7) tumor weights in mg of the treated mice divided by the corresponding
(§8) values for the control mice. All testing was performed using both platinu
(§9) compounds in the same experiment. The criteria for activity are as
(§10) follows: confirmed activity (activity from two separate laboratories) of
(§11) % T/C of 150 or more for survival systems and 10% or less for tumor weigh
(§12) inhibition assays. Lower levels of activity such as a % T/C of 125 for
(§13) survival systems and 42% for tumor weight inhibition assays are considere
(§14) statistically significant.

L1210 [7] = assay: Mouse tumor panel: L1210 (ip, survival time); format: in vivo; conditions: D1-9
Description: as §4, §5, §6, §7, §8, §9, §10, §11, §12, §13, §14

Lewis lung = assay: Mouse tumor panel: Lewis lung (iv, survival time); format: in vivo; conditions: D1-9
Description: as §4, §5, §6, §7, §8, §9, §10, §11, §12, §13, §14

CD8F1 mammary = assay: Mouse tumor panel: CD8F1 mammary (sc, tumor weight inhibition); format: in vivo; conditions: Q7DX5
Description: as §4
(§15) **Tumor weight inhibition assay.
as §6, §7, §8, §9, §10, §11, §12, §13, §14

Colon #38 = assay: Mouse tumor panel: Colon #38 (sc, tumor weight inhibition); format: in vivo; conditions: D2,9
Description: as §4, §15, §6, §7, §8, §9, §10, §11, §12, §13, §14

murine leukemia L1210 = assay: Antileukemic activity in mice against murine leukemia L1210 (general statement); format: in vivo
From the text: Some previous platinum chelate compounds show dosage limitation due to renal impairment but the free carboxyl of the present composition offers a possible route of oral […] and absorption by the stomach.

[8] = tested on: strains of murine leukemia; assay: Activity against strains of murine leukemia resistant to NSC 119875 (general statement); conditions: mouse, in vivo
[9] = 5 mg/kg + cyclophosphamide 50 mg/kg + 5-fluorouracil 75 mg/kg
[10] = 5 mg/kg + cyclophosphamide 50 mg/kg, two experiments

## NC1CCCCC1N.O=S(=O)([O-])[O-].[Pt+2] (centres unmarked) [NSC-250427]
[1]
  Body Weight Loss score: 2
  Clinical Chemistry - Blood Urea Nitrogen score: 1
  Clinical Chemistry - Creatinine score: 1
  Clinical Chemistry - Serum Glutamic Pyruvic Transaminase score: 5
  Hematology - Hematocrit score: 3
  Hematology - White Blood Cell score: 3
  Histopathology - Gastrointestinal score: 1
  Histopathology - Hematopoietic score: 4
  Histopathology - Lymphatic score: 2
  Histopathology - Renal score: 2
  TOTAL SCORE: 24

## CC(C)N.CC(C)N.[Cl-].[Cl-].[OH-].[OH-].[Pt] [NSC-256927, bisisopropylamine-cis-dichloro-transdihydroxy]
[1]
  Body Weight Loss score: 2
  Clinical Chemistry - Blood Urea Nitrogen score: 1
  Clinical Chemistry - Creatinine score: 1
  Clinical Chemistry - Serum Glutamic Pyruvic Transaminase score: 3
  Hematology - Hematocrit score: 4
  Hematology - White Blood Cell score: 3
  Histopathology - Gastrointestinal score: 1
  Histopathology - Hematopoietic score: 4
  Histopathology - Lymphatic score: 4
  Histopathology - Renal score: 2
  TOTAL SCORE: 25

## N[C@@H]1CCCC[C@H]1N.O=C([O-])c1ccc(C(=O)[O-])c(C(=O)[O-])c1.[H+].[Pt+2] [NSC-271674, 4-Carboxyphthalato(1,2-diaminocyclohexane)platinum(II)]
L1210 leukemia [2]; 5 mg/kg ip
  % increase in life span (% ILS): 70%
L1210 leukemia [2]; 10 mg/kg ip
  % increase in life span (% ILS): 118%
L1210 leukemia [2]; 20 mg/kg ip
  % increase in life span (% ILS): 119%
L1210 leukemia [2]; 25 mg/kg ip
  % increase in life span (% ILS): 139%
L1210 leukemia [2]; 40 mg/kg ip
  % increase in life span (% ILS): 232%
L1210 leukemia [2]; 50 mg/kg ip
  mice survived > 60 days: 1 of 8
  % increase in life span (% ILS): 288%
L1210 leukemia [2]; 60 mg/kg ip
  mice survived > 60 days: 1 of 8
  % increase in life span (% ILS): 174%
L1210 leukemia [3]; [9]
  % ILS: 673%
  >60 day survivors: 8 of 10
L1210 leukemia [3]; [10]
  % ILS: 416% and 217%
  >60 day survivors: 3 of 10 and no
L1210 leukemia [3]; 5 mg/kg alone, three experiments
  % ILS: 51% and 42% and 39%
Lethality (LD50) in mice
  approximate LD50: ~75 mg/kg
L1210 leukemia [4]; 0.78 mg/kg
  % ILS: 27%
  Cures (of 10): 0 of 10
L1210 leukemia [4]; 1.56 mg/kg
  % ILS: 33%
  Cures (of 10): 0 of 10
L1210 leukemia [4]; 3.13 mg/kg
  % ILS: 46%
  Cures (of 10): 0 of 10
L1210 leukemia [4]; 6.25 mg/kg
  % ILS: 163%
  Cures (of 10): 1 of 10
L1210 leukemia [4]; 12.5 mg/kg
  % ILS: 191%
  Cures (of 10): 2 of 10
L1210 leukemia [4]; 25 mg/kg
  % ILS: 344%
  Cures (of 10): 5 of 10
L1210 leukemia [5]; 0.78 mg/kg
  % ILS: 19%
L1210 leukemia [5]; 1.56 mg/kg
  % ILS: 19%
L1210 leukemia [5]; 3.13 mg/kg
  % ILS: 41%
L1210 leukemia [5]; 6.25 mg/kg
  % ILS: 58%
  questionably toxic deaths: 2 deaths
L1210 leukemia [5]; 12.5 mg/kg
  % ILS: 147%
L1210 leukemia [5]; 25 mg/kg
  % ILS: 86%
L1210 leukemia [5]; all doses
  cures: No cures
L1210 [6]
  ID50 (concentration required to inhibit the growth of cells by 50 percent): 0.30 µg/mL
L1210/DDP
  ID50 (concentration required to inhibit the growth of cells by 50 percent): 0.23 µg/mL
P388 leukemia
  % ILS: 56%
  Survival: 20.7 days
P388/DDP
  % ILS: 201%
  Survival: 33.3 days
B16 melanoma; B16 first line, optimal dose NSC-119875 2, NSC-271674 6.25 mg/kg/inj
  % T/C (survival time) at optimal dose: 171%
B16 melanoma; B16 second line, optimal dose NSC-119875 1, NSC-271674 1.56 mg/kg/inj
  % T/C (survival time) at optimal dose: 159%
L1210 [7]; L1210 first line, optimal dose NSC-119875 2, NSC-271674 0.78 mg/kg/inj
  % T/C (survival time) at optimal dose: 174%
L1210 [7]; L1210 second line, optimal dose NSC-119875 2, NSC-271674 1.56 mg/kg/inj
  % T/C (survival time) at optimal dose: 325%
Lewis lung; Lewis lung first line, optimal dose NSC-119875 2, NSC-271674 3.12 mg/kg/inj
  % T/C (survival time) at optimal dose: 122%
Lewis lung; Lewis lung second line, optimal dose NSC-119875 2, NSC-271674 6.25 mg/kg/inj
  % T/C (survival time) at optimal dose: 127%
CD8F1 mammary; CD8F1 first line, optimal dose NSC-119875 8, NSC-271674 6.25 mg/kg/inj
  % T/C (tumor weight) at optimal dose: 11%
CD8F1 mammary; CD8F1 second line, optimal dose NSC-119875 8, NSC-271674 25 mg/kg/inj
  % T/C (tumor weight) at optimal dose: 25%
Colon #38; Colon #38 first line, optimal dose NSC-119875 8, NSC-271674 12.5 mg/kg/inj
  % T/C (tumor weight) at optimal dose: 50%
Colon #38; Colon #38 second line, optimal dose NSC-119875 16, NSC-271674 50 mg/kg/inj
  % T/C (tumor weight) at optimal dose: 33%
[1]; against NSC 119875
  renal toxicity (in words): superior results in testing for renal toxicity
[1]
  Body Weight Loss score: 3
  Clinical Chemistry - Blood Urea Nitrogen score: 1
  Clinical Chemistry - Creatinine score: 1
  Clinical Chemistry - Serum Glutamic Pyruvic Transaminase score: 3
  Hematology - Hematocrit score: 3
  Hematology - White Blood Cell score: 3
  Histopathology - Gastrointestinal score: 1
  Histopathology - Hematopoietic score: 5
  Histopathology - Lymphatic score: 1
  Histopathology - Renal score: 2
  TOTAL SCORE: 23
Murine leukemia L1210; cyclophosphamide 50 mg/kg, optionally 5-FU 75 mg/kg or HU 1000 mg/kg
  effect of combination with cyclophosphamide (in words): potentiated
Murine leukemia L1210; mice
  antileukemic activity (in words): antileukemic activity
  effective dosage: 5-60 mg/kg of body weight
[8]
  activity against NSC 119875-exhausted strains (in words): appears to be active
